Assay results published in PMC12501277, “The deubiquitylase OTUB1 drives gemcitabine resistance in pancreatic cancer by enhancing pyrimidine metabolism through modulating DHODH mRNA stability” (Cell Death & Disease, 2025).
pKd: −log10 of the molar value.

Target: T1, OTUB1 (Homo sapiens, UniProt Q96FW1)
T1 construct: Recombinant human OTUB1 protein (Abcam, ab157086)
Assay: SPR (Biacore 8K, OTUB1 immobilized on CM5 chip)
Type: binding

T1 sequence (Q96FW1 2-271): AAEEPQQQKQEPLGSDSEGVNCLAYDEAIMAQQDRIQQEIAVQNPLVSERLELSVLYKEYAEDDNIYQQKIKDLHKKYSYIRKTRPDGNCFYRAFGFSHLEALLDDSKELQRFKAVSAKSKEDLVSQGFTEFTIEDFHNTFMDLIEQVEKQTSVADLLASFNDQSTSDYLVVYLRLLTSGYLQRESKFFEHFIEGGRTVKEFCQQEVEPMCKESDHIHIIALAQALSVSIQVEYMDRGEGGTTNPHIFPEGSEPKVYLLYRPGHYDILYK

pKd: 4.63
SMILES: COc1cc(NC(=O)CCN2CCC(OC(=O)Nc3ccccc3-c3ccccc3)CC2)c(Cl)cc1CNC[C@H](O)c1ccc(O)c2[nH]c(=O)ccc12 [Batefenterol]
